Reference: patent publication US20100124538A1, “TOPICAL APPLICATION OF FLUOCINOLONE ACETONIDE FOR DEPIGMENTATION OF THE SKIN” (GALDERMA RESEARCH & DEVELOPMENT, priority 2007, published 2010)

Tests used:
melasma [1] = details: cited from earlier work
tail of SKH:HR2 mice [2] = assay: Fontana-Masson-positive surface area in living epidermis of the tail (histology, image analysis); type: in vivo; details: 4 weeks
Method: (§1) The depigmenting activity of fluocinolone acetonide and of hydrocortisone was evaluated on the tail of female SKH:HR2 mice that were 6 weeks old at the beginning of the study. The products were applied topically (20 μl of product to the tail), 5 days a week for 4 weeks. Each group contains 5 animals:
A tail skin sample is taken at the end of the study and fixed with formol in order to carry out a histological analysis.
The epidermal surface area taken up by melanin is measured by image analysis on histological sections stained by the Fontana-Masson technique, which makes it possible to reveal the pigments. For each animal, the Fontana-Masson-positive surface area is measured by image analysis on five fields of interfollicular epidermis and weighted with respect to the length of corresponding epidermis in order to avoid any possible bias due to hyperplasia or atrophy of the epidermis. Since the horny layer is partially lost during the treatment of the samples, the measurement is carried out only in the living layers of the epidermis.

tail of SKH:HR2 mice [3] = assay: Clinical pigmentation score on the tail of SKH:HR2 mice after topical application; type: in vivo; details: for depigmenting activity (clinical pigmentation score): 4 weeks
Method: as §1
Clinical observations: once a week the pigmentation is scored on a scale ranging from 0 (base pigmentation) to −4 (total depigmentation).
The depigmenting activities of three corticosteroids, fluocinolone acetonide, desonide and β-methasone valerate, were evaluated on the tail of female SKH:HR2 mice that were 8 weeks old at the beginning of the study. The products were applied topically (20 μl of product to the tail), 5 days a week for 5 weeks. Each group contains 6 animals.
Clinical observations: once a week, the pigmentation is scored on a scale ranging from 0 (base pigmentation) to −4 (total depigmentation).
The depigmenting activity of fluocinolone acetonide and of desonide was evaluated on the tail of female SKH:HR2 mice that were 8 weeks old at the beginning of the study. The products were applied topically (20 μl of product to the tail), 5 days a week for 4 weeks.

melasma [4] = details: monotherapy; cited from earlier work

CCC(=O)O[C@]1(C(=O)CCl)[C@@H](C)C[C@H]2[C@@H]3CCC4=CC(=O)C=C[C@]4(C)[C@@]3(F)[C@@H](O)C[C@@]21C [clobetasol propionate]
cases in which treatment had to be stopped due to local atrophy and telangiectasiae (melasma [1]; 0.05% topical, stopped after 4 weeks): 30%
patients with lightening in whom the melasma reappeared at the same sites (melasma [1]; 2 to 3 weeks after the treatment had been stopped): 57%

CC1(C)O[C@@H]2C[C@H]3[C@@H]4C[C@H](F)C5=CC(=O)C=C[C@]5(C)[C@@]4(F)[C@@H](O)C[C@]3(C)[C@]2(C(=O)CO)O1 [fluocinolone acetonide]
decrease in the Fontana-Masson-positive surface area in the living layers of the tail epidermis (tail of SKH:HR2 mice [2]; 0.0005% topical): 72%
decrease in the Fontana-Masson-positive surface area in the living layers of the tail epidermis (tail of SKH:HR2 mice [2]; 0.01% topical): 85%
depigmenting activity (clinical pigmentation score) (tail of SKH:HR2 mice [3]; Example 1, 0.0005% topical): remains substantial
depigmentation of the tail (clinical pigmentation score) (tail of SKH:HR2 mice [3]; Example 1, 0.01% topical, 5 days a week, after 4 weeks, compared with hydrocortisone at same concentration): marked depigmentation
depigmentation observed (clinical pigmentation score) (tail of SKH:HR2 mice [3]; Example 2, 0.01% topical, after 5 weeks): virtually total
depigmenting activity compared with other corticosteroids (tail of SKH:HR2 mice [3]; Example 2, equivalent concentration of 0.01%, 5 weeks): greater depigmenting activity than desonide and than β-methasone valerate
depigmenting activity (clinical pigmentation score) (tail of SKH:HR2 mice [3]; Example 3, 0.005% topical): very significant depigmenting activity
depigmenting activity compared with desonide (tail of SKH:HR2 mice [3]; Example 3, equivalent concentration, throughout the study (4 weeks)): remains greater than that of desonide

C[C@]12CCC(=O)C=C1CC[C@@H]1[C@@H]2[C@@H](O)C[C@@]2(C)[C@H]1CC[C@]2(O)C(=O)CO [hydrocortisone]
change of Fontana-Masson-positive surface area (tail of SKH:HR2 mice [2]; up to the concentration of 0.5% topical): does not significantly modify
depigmenting activity (clinical pigmentation score) (tail of SKH:HR2 mice [3]; Example 1, 0.01% increased to 0.5% topical): only a very weak depigmenting activity

Oc1ccc(O)cc1 [hydroquinone]
time necessary to obtain a significant result (melasma [4]): 12 weeks

CC1=C(/C=C/C(C)=C/C=C/C(C)=C/C(=O)O)C(C)(C)CCC1 [tretinoin]
time necessary to obtain a significant result (melasma [4]): 40 weeks
